These results are taken from patent US20110059043A1, “CHEMICAL COMPOUNDS” (priority 2009, published 2011).

The IC50 is the concentration at which inhibition is half-maximal.

Series [1] addresses T1, Recombinant HCV polymerase (BK strain) (Hepatitis C virus genotype 1b, UniProt P26663).
T1 construct: Recombinant HCV polymerase (BK strain) was expressed and purified from E. coli with a 21 amino acid C-terminal deletion; His6; made in house; host or cells: E. coli
Put plainly: HCV polymerase enzyme assay (radiometric [33P]-UTP incorporation). The series is classed as biochemical, HCV 1b. The method, then:
Compounds were tested for inhibition of HCV polymerase using a radiometric [^33P]-UTP incorporation assay and a biotinylated U13:PolyA primer:template RNA substrate.
Recombinant HCV polymerase (BK strain) was expressed and purified from E. coli with a 21 amino acid C-terminal deletion and a His6-tag. The general assay buffer consisted of 20 mM Tris (pH 7.5), 25 mM KCl, 5 mM MgCl2, 3 mM DTT, 0.5 mg/ml BSA, 0.01% Tween20. The standard reaction, in 96 well plates, contained 10 μl of diluted compound, 50 μl of substrate and 40 μl of enzyme. Compounds, supplied as 10 mM stocks in DMSO, were diluted initially in neat DMSO, and subsequently buffer was added to give a DMSO concentration of 30%; 10 μl of this was added to the assay plate to give a final concentration in the 100 μl assay of 3% DMSO. The biotinylated U13:PolyA RNA substrate was pre-annealed with 40 μM 5′-biotinylated U13 (Dharmacon) and 213 μg/ml PolyA (Amersham Biosciences) in water incubated at 70° C. for 5 minutes before being cooled on ice. Substrate (50 μl) was added in buffer to give a final concentration in the 100 μl assay of 125 nM biotinylated U13:0.63 μg/ml PolyA and 200 nM UTP with 0.4 μCi [^33P]-UTP per well (Perkin Elmer). The reaction was initiated by the addition of 40 μl of enzyme in buffer to give 100 nM final concentration. The reaction was incubated at 25° C. for 100 minutes and then stopped by addition of 100 μl of 100 mM EDTA. The samples were then transferred to 96 well Streptavidin-coated FlashPlates (Perkin Elmer) and incubated at room temperature for ˜1 hour to allow binding to occur. The plates were then washed three times with phosphate-buffered saline containing 0.05% Tween20 in an automated plate washer to remove unincorporated [^33P]-UTP, and then counted in a
Each plate included a set of positive controls (no compound, maximum signal) and negative controls (no enzyme, minimum signal) and in each run at least one reference is compound was included to validate the assay. The IC50, concentration required to inhibit the enzyme activity by 50%, was calculated using an 8-point IC50 curve and fitted using the program XLfit (IDBS).

Series [2] has as its system HCV replicon cells Huh 9B. Put plainly: HCV replicon assay (luciferase). The series is classed as cell-based. The conditions noted are these: Hepatitis C virus, reduction of replicon level by 50% vs untreated cell control, 72 h. Here is the method:
(§1) HCV replicon cells Huh 9B (ReBlikon), containing the firefly luciferase—ubiquitin—neomycin phosphotransferase fusion protein and EMCV-IRES driven HCV polyprotein with cell culture adaptive mutations.
(§2) Cells were cultured at 37° C. in a 5% CO2 environment and split twice a week on seeding at 2×10^6 cells/flask on day 1 and 1×10^6 3 days later. G418 at 0.5 mg/ml was added to the culture medium but not the assay medium. The culture medium consisted of DMEM with […] glucose and glutamax (Gibco 61965-026) supplemented with 1×non-essential amino acids (Invitrogen 11140-035), penicillin (100 IU/ml)/streptomycin (100 μg/ml) (Invitrogen 15140-122), FCS (10%, 50 ml) and […] (Invitrogen 10131-027) & 10% Australian foetal calf serum (Invitrogen 10099-141).
(§3) A flask of cells was trypsinised and a cell count carried out. Cells were diluted to 100,000 cells/ml and 100 μl of this used to seed one opaque white 96-well plate (for the replicon assay) and one flat-bottomed clear plate (for the tox assay) for every five compounds to be tested for IC50. Wells G12 and H12 were left empty in the clear plate as the blank. Plates were then incubated at 37° C. in a 5% CO2 environment for 24 h.
(§4) On the following day compound dilutions are made up in medium at twice their desired final concentration in a clear round bottomed plate. All dilutions have a final DMSO concentration of 1%.
(§5) Once the dilution plate had been made up, controls and compounds were transferred to the assay plates (containing the cells) at 100 μl/well in duplicate wells. Exception: no compound was added to wells A1 and A2 of either plate and 100 μl of 1% DMSO was added to these instead. Plates were then incubated at 37° C. with 5% CO2 for 72 h.
At the end of the incubation time, the cells in the white plate were harvested by washing in PBS (100 μL per well) and gently tapping dry before addition of […] of lysis buffer (25 mM tris-phosphate, 8 mM MgCl2, 1 mM DTT, 1% Triton X-100, 15% glycerol. pH to 7.8 using KH2PO4 prior to triton and glycerol addition. Substrate was prepared: 23.5 mM beetle luciferin (Promega E1603), 26 mM ATP (Sigma O-2060) in […] Tris buffer pH 7.8 aliquoted and stored at −80° C. was thawed and diluted 1:50 in luciferase assay buffer (20 mM Tricine (Sigma T-0377), 1.07 mM magnesium carbonate hydroxide (Sigma M-5671), 0.1 mM EDTA (Sigma E-5134), 2.67 mM MgSO4(BDH 101514Y), 33.3 mM dithiothreitol (Sigma 150460) pH 7.8).
The M injector of the microplate luminometer (Lmax, Molecular Devices) was primed with 5×300 μl injections of the diluted substrate. After 5-60 min incubation in lysis buffer at room temperature, a plate was inserted into the luminometer and 100 μl luciferase assay reagent was added by the injector on the luminometer. The signal was measured using a 1 second delay followed by a 4 second measurement programme. The IC50, the concentration of the drug required for reducing the replicon level by 50% in relation to the untreated cell control value, can be calculated from the plot of the percentage reduction of the luciferase activity vs. drug concentration.
For orientation: In antiviral work, replicon cells carry a viral genome segment that copies itself.

In series [3] the test system is HCV replicon cells Huh 9B. The class given is cell-based. The conditions noted are these: concentration reducing total cell area by 50% relative to DMSO controls; 72 h. Here is the method:
as §1, §2, §3, §4, §5
The clear plate was stained with 100 μl 0.5% methylene blue in 50% ethanol at room temperature for lh, followed by solvation of the absorbed methylene blue in 100 μl per well of 1% lauroylsarcosine. Absorbance of the plate was measured on a microplate spectrophotometer (Molecular Devices) and the absorbance for each concentration of compound expressed as a proportion of the relative DMSO control. The TD50, the concentration of drug required to reduce the total cell area by 50% relative to the DMSO controls, can be calculated by plotting the absorbance at 620 nm minus background against drug concentration.

T1 sequence (P26663 2420-2989): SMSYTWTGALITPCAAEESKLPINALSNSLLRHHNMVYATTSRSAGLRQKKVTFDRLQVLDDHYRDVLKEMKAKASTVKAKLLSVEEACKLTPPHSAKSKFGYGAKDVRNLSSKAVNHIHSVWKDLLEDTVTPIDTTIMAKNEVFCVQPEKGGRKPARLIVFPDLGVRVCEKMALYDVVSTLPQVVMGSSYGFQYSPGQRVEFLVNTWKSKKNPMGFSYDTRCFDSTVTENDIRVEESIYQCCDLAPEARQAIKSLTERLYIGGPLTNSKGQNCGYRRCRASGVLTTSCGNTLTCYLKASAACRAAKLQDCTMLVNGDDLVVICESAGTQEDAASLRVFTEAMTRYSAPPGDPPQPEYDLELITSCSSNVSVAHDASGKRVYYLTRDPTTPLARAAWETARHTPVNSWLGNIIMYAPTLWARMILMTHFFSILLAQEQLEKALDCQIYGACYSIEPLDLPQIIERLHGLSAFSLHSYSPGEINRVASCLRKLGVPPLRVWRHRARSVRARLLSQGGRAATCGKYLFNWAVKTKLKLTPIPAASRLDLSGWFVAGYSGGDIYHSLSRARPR

For the compound `COCCCOc1ccc(Cl)cc1C(=O)NC1N=C(c2c(Cl)cc(Cl)cc2Cl)c2ccccc2NC1=O` (stereo not drawn) [Example 1, 5-chloro-2-(3-methoxypropoxy)-N-(2-oxo-5-(2,4,6-trichlorophenyl)-2,3-dihydro-1H-benzo[e][1,4]diazepin-3-yl)benzamide], the IC50 worked out at 354 nM in series [1] and 210 nM in series [2]. The “Replicon Assay Value TD50” value in series [3] is greater than 25 µM.
Take `CO[C@@H](C)COc1ccc(Cl)cc1C(=O)NC1N=C(c2c(Cl)cc(Cl)cc2Cl)c2ccccc2NC1=O` (stereo partly drawn) [Example 2, 5-Chloro-2-((S)-2-methoxypropoxy)-N-(2-oxo-5-(2,4,6-trichlorophenyl)-2,3-dihydro-1H-benzo[e][1,4]diazepin-3-yl)benzamide]: the 50% inhibitory concentration (IC50) in series [1] is 167 nM; in series [2], 382 nM. In series [3], the “Replicon Assay Value TD50” value is greater than 25 µM.
On the same counts, the results for `CCOCCOc1ccc(Cl)cc1C(=O)NC1N=C(c2c(Cl)cc(Cl)cc2Cl)c2ccccc2NC1=O` (stereo not drawn) [Example 3, 5-Chloro-2-(2-ethoxyethoxy)-N-(2-oxo-5-(2,4,6-trichlorophenyl)-2,3-dihydro-1H-benzo[e][1,4]diazepin-3-yl)benzamide] are 111 nM, 82.9 nM and 16.177 µM.
Consider `COCC(C)Oc1ccc(Cl)cc1C(=O)NC1N=C(c2c(Cl)cc(Cl)cc2Cl)c2ccccc2NC1=O` (stereo not drawn) [Example 4, 5-Chloro-2-(1-methoxypropan-2-yloxy)-N-(2-oxo-5-(2,4,6-trichlorophenyl)-2,3-dihydro-1H-benzo[e][1,4]diazepin-3-yl)benzamide], for which the IC50 in series [1] is 261 nM; in series [2], 304 nM. Further, the “Replicon Assay Value TD50” value in series [3] is greater than 25 µM.
On the same counts, the results for `COCCOCCOc1ccc(Cl)cc1C(=O)NC1N=C(c2c(Cl)cc(Cl)cc2Cl)c2ccccc2NC1=O` (stereo not drawn) [Example 5, 5-Chloro-2-(2-(2-methoxyethoxy)ethoxy)-N-(2-oxo-5-(2,4,6-trichlorophenyl)-2,3-dihydro-1H-benzo[e][1,4]diazepin-3-yl)benzamide] are 209 nM, 490 nM and 15.913 µM.
For `CC(C)COCCOc1ccc(Cl)cc1C(=O)NC1N=C(c2c(Cl)cc(Cl)cc2Cl)c2ccccc2NC1=O` (stereo not drawn) [Example 6, 5-Chloro-2-(2-isobutoxyethoxy)-N-(2-oxo-5-(2,4,6-trichlorophenyl)-2,3-dihydro-1H-benzo[e][1,4]diazepin-3-yl)benzamide], the IC50 in series [1] amounted to 715 nM; in series [2] it was 849 nM. The “Replicon Assay Value TD50” value in series [3] amounted to 10.604 µM.
In the same order, the values of `CCCCCOCCOc1ccc(Cl)cc1C(=O)NC1N=C(c2c(Cl)cc(Cl)cc2Cl)c2ccccc2NC1=O` (stereo not drawn) [Example 7, 5-Chloro-N-(2-oxo-5-(2,4,6-trichlorophenyl)-2,3-dihydro-1H-benzo[e][1,4]diazepin-3-yl)-2-(2-(pentyloxy)ethoxy)benzamide] are 662 nM, 1450 nM and 11.806 µM.
On the same counts, the results for `CCOCCOCCOc1ccc(Cl)cc1C(=O)NC1N=C(c2c(Cl)cc(Cl)cc2Cl)c2ccccc2NC1=O` (stereo not drawn) [Example 8, 5-Chloro-2-(2-(2-ethoxyethoxy)ethoxy)-N-(2-oxo-5-(2,4,6-trichlorophenyl)-2,3-dihydro-1H-benzo[e][1,4]diazepin-3-yl)benzamide] are 1070 nM, 1340 nM and 11.724 µM.
On the same counts, the results for `O=C(NC1N=C(c2c(Cl)cc(Cl)cc2Cl)c2ccccc2NC1=O)c1cc(Cl)ccc1OCC1CCCO1` (stereo not drawn) [Example 9, 5-Chloro-N-(2-oxo-5-(2,4,6-trichlorophenyl)-2,3-dihydro-1H-benzo[e][1,4]diazepin-3-yl)-2-((tetrahydrofuran-2-yl)methoxy)benzamide] are 296 nM, 610 nM and greater than 25 µM.
`CCCCOCCOc1ccc(Cl)cc1C(=O)NC1N=C(c2c(Cl)cc(Cl)cc2Cl)c2ccccc2NC1=O` (stereo not drawn) [Example 10, 2-(2-Butoxyethoxy)-5-chloro-N-(2-oxo-5-(2,4,6-trichlorophenyl)-2,3-dihydro-1H-benzo[e][1,4]diazepin-3-yl)benzamide]: the IC50 in series [1] was found to be 757 nM; in series [2], 338 nM. The “Replicon Assay Value TD50” value in series [3] was greater than 25 µM.
On the same counts, the results for `O=C(NC1N=C(c2c(Cl)cc(Cl)cc2Cl)c2ccccc2NC1=O)c1cc(Cl)ccc1OCCOc1ccccc1` (stereo not drawn) [Example 11, 5-Chloro-N-(2-oxo-5-(2,4,6-trichlorophenyl)-2,3-dihydro-1H-benzo[e][1,4]diazepin-3-yl)-2-(2-phenoxyethoxy)benzamide] are 864 nM, 1150 nM and greater than 25 µM.
In the same order, the values of `CN(C)CCCOc1ccc(Cl)cc1C(=O)NC1N=C(c2c(Cl)cc(Cl)cc2Cl)c2ccccc2NC1=O` (stereo not drawn) [Example 12, 5-Chloro-2-(3-(dimethylamino)propoxy)-N-(2-oxo-5-(2,4,6-trichlorophenyl)-2,3-dihydro-1H-benzo[e][1,4]diazepin-3-yl)benzamide] are 3130 nM, 5510 nM and 4.253 µM.
Regarding `CN(C)CCOCCOc1ccc(Cl)cc1C(=O)NC1N=C(c2c(Cl)cc(Cl)cc2Cl)c2ccccc2NC1=O` (stereo not drawn) [Example 13, 5-Chloro-2-(2-(2-(dimethylamino)ethoxy)ethoxy)-N-(2-oxo-5-(2,4,6-trichlorophenyl)-2,3-dihydro-1H-benzo[e][1,4]diazepin-3-yl)benzamide], the IC50 was 1700 nM in series [1] and 3170 nM in series [2]. Also, the “Replicon Assay Value TD50” value in series [3] amounted to 6.754 µM.
